Test results published in PMC8811960, “A Novel 2-Carbon-Linked Dimeric Artemisinin With Potent Antileukemic Activity and Favorable Pharmacology” (Frontiers in Oncology, 2022).

System: TF1
Assay: alamarBlue growth inhibition, TF1
Format: cell-based
Conditions: Homo sapiens, TF-1, TF1, 48h, mean of 2 independent assays ± SD
Protocol: Cytotoxicity was assessed using alamarBlue assays (Life Technologies, Grand Island, NY) following manufacturer’s guidelines. Cell death was verified by Annexin V/7-aminoactinomycin D (7AAD) staining (BioLegend, San Diego, CA) per manufacturer’s guidelines.

`C=CCO/N=C(/C[C@H]1O[C@@H]2O[C@@]3(C)CC[C@H]4[C@H](C)CC[C@@H]([C@H]1C)[C@@]24OO3)[C@H]1O[C@@H]2O[C@@]3(C)CC[C@H]4[C@H](C)CC[C@@H]([C@H]1C)[C@@]24OO3` [ART631] showed an IC50 of 27 ± 2 nM.
